# Experimental data as given in paper PMC5218480 (PLoS ONE, 2017).
# Test system: MV-4-11 cells
# Assay: Gene expression microarray analysis (Affymetrix PrimeView) and GSEA
# Assay type: cell-based, human
# Parameters: RFU PODN (11730768_x_at) / Fold change /veh PODN (11730768_x_at) / RFU LINC00158 (11744669_a_at) / Fold change /veh LINC00158 (11744669_a_at) / RFU DUSP10 (11751237_a_at) / Fold change /veh DUSP10 (11751237_a_at) / RFU ID3 (11757404_x_at) / Fold change /veh ID3 (11757404_x_at) / RFU PLEKHG5 (11737974_s_at) / Fold change /veh PLEKHG5 (11737974_s_at) / RFU LRRC4B (11730491_at) / Fold change /veh LRRC4B (11730491_at) / RFU GIMAP4 (11747438_a_at) / Fold change /veh GIMAP4 (11747438_a_at) / RFU KRT8 (11758183_x_at) / Fold change /veh KRT8 (11758183_x_at) / RFU CNN1 (11734310_a_at) / Fold change /veh CNN1 (11734310_a_at) / RFU VPS37D (11726825_at) / Fold change /veh VPS37D (11726825_at) / RFU C10orf10 (11716522_x_at) / Fold change /veh C10orf10 (11716522_x_at) / RFU KIR2DL2 /// KIR2DL4 /// KIR2DL5A /// KIR2DL5B /// KIR2DS1 /// KIR2DS2 /// KIR2DS3 /// KIR2DS4 /// KIR3DL3 /// KIR3DL3 /// KIR3DS1 (11738374_at) / Fold change /veh KIR2DL2 /// KIR2DL4 /// KIR2DL5A /// KIR2DL5B /// KIR2DS1 /// KIR2DS2 /// KIR2DS3 /// KIR2DS4 /// KIR3DL3 /// KIR3DL3 /// KIR3DS1 (11738374_at) / RFU C1QL1 (11718748_at) / Fold change /veh C1QL1 (11718748_at) / RFU TMPRSS4 (11747572_a_at) / Fold change /veh TMPRSS4 (11747572_a_at) / RFU HAMP (11756126_x_at) / Fold change /veh HAMP (11756126_x_at) / RFU RNFT2 (11725882_a_at) / Fold change /veh RNFT2 (11725882_a_at) / RFU NR4A2 (11747474_a_at) / Fold change /veh NR4A2 (11747474_a_at) / RFU ABCC12 (11746883_a_at) / Fold change /veh ABCC12 (11746883_a_at) / RFU TMEM136 (11760407_x_at) / Fold change /veh TMEM136 (11760407_x_at) / RFU CLDN22 /// WWC2 (11732394_at) / Fold change /veh CLDN22 /// WWC2 (11732394_at) / RFU HLA-DPB1 (11760878_x_at) / Fold change /veh HLA-DPB1 (11760878_x_at) / RFU SPINT1 (11716480_a_at) / Fold change /veh SPINT1 (11716480_a_at) / RFU GAP43 (11754022_s_at) / Fold change /veh GAP43 (11754022_s_at) / RFU A4GNT (11735810_at) / Fold change /veh A4GNT (11735810_at) / RFU PRB3 (11715151_x_at) / Fold change /veh PRB3 (11715151_x_at) / RFU TUBB4B (11761932_at) / Fold change /veh TUBB4B (11761932_at) / RFU CAPN14 (11732068_a_at) / Fold change /veh CAPN14 (11732068_a_at) / RFU TMCC2 (11721928_a_at) / Fold change /veh TMCC2 (11721928_a_at) / RFU IRGQ (11745062_a_at) / Fold change /veh IRGQ (11745062_a_at) / RFU FAM174B (11720279_a_at) / Fold change /veh FAM174B (11720279_a_at) / RFU TMPRSS4 (11748680_a_at) / Fold change /veh TMPRSS4 (11748680_a_at) / RFU FAM212B (11763350_a_at) / Fold change /veh FAM212B (11763350_a_at) / RFU PLEKHG5 (11743358_a_at) / Fold change /veh PLEKHG5 (11743358_a_at) / RFU ZSCAN30 (11745921_a_at) / Fold change /veh ZSCAN30 (11745921_a_at) / RFU CMKLR1 (11741424_a_at) / Fold change /veh CMKLR1 (11741424_a_at) / RFU LOC101060620 /// MAPK8IP1 (11723275_at) / Fold change /veh LOC101060620 /// MAPK8IP1 (11723275_at) / RFU SPTSSB (11747773_x_at) / Fold change /veh SPTSSB (11747773_x_at) / RFU PRSS12 (11739890_at) / Fold change /veh PRSS12 (11739890_at) / RFU BIN1 (11741810_x_at) / Fold change /veh BIN1 (11741810_x_at) / RFU WNT11 (11732464_a_at) / Fold change /veh WNT11 (11732464_a_at) / RFU C10orf10 (11716521_a_at) / Fold change /veh C10orf10 (11716521_a_at) / RFU C5orf56 (11738089_at) / Fold change /veh C5orf56 (11738089_at) / RFU CYB561 (11721691_x_at) / Fold change /veh CYB561 (11721691_x_at) / RFU ANKRD19P (11752326_a_at) / Fold change /veh ANKRD19P (11752326_a_at) / RFU OR2T12 /// OR2T33 /// OR2T8 (11738714_s_at) / Fold change /veh OR2T12 /// OR2T33 /// OR2T8 (11738714_s_at) / RFU VCAN (11748164_a_at) / Fold change /veh VCAN (11748164_a_at) / RFU JSRP1 (11732532_at) / Fold change /veh JSRP1 (11732532_at) / RFU KRTAP10-11 (11738290_x_at) / Fold change /veh KRTAP10-11 (11738290_x_at) / RFU MYO3A (11730013_a_at) / Fold change /veh MYO3A (11730013_a_at) / RFU EBF3 (11725865_a_at) / Fold change /veh EBF3 (11725865_a_at) / RFU CAMK2N1 (11719241_x_at) / Fold change /veh CAMK2N1 (11719241_x_at) / RFU C5orf56 (11738088_a_at) / Fold change /veh C5orf56 (11738088_a_at) / RFU OLFML3 (11715873_a_at) / Fold change /veh OLFML3 (11715873_a_at) / RFU LOC100653217 /// NTM (11731650_a_at) / Fold change /veh LOC100653217 /// NTM (11731650_a_at) / RFU MAPK11 (11762145_a_at) / Fold change /veh MAPK11 (11762145_a_at) / RFU FIZ1 (11724087_x_at) / Fold change /veh FIZ1 (11724087_x_at) / RFU OASL (11726364_x_at) / Fold change /veh OASL (11726364_x_at) / RFU SOX15 (11748057_x_at) / Fold change /veh SOX15 (11748057_x_at) / RFU CD79A (11719716_a_at) / Fold change /veh CD79A (11719716_a_at) / RFU HIST1H1D (11736915_at) / Fold change /veh HIST1H1D (11736915_at) / RFU CASKIN2 (11723855_a_at) / Fold change /veh CASKIN2 (11723855_a_at) / RFU LOC730098 (11760151_x_at) / Fold change /veh LOC730098 (11760151_x_at) / RFU OR4N2 (11742367_at) / Fold change /veh OR4N2 (11742367_at) / RFU PRRT2 (11749266_a_at) / Fold change /veh PRRT2 (11749266_a_at) / RFU SNX32 (11753110_a_at) / Fold change /veh SNX32 (11753110_a_at) / RFU CDHR5 (11726645_a_at) / Fold change /veh CDHR5 (11726645_a_at) / RFU RCAN1 (11760418_a_at) / Fold change /veh RCAN1 (11760418_a_at) / RFU FAM167A (11723789_a_at) / Fold change /veh FAM167A (11723789_a_at) / RFU FAM26E (11764081_at) / Fold change /veh FAM26E (11764081_at) / RFU ISYNA1 (11749810_s_at) / Fold change /veh ISYNA1 (11749810_s_at) / RFU ACY1 (11761880_at) / Fold change /veh ACY1 (11761880_at) / RFU 11764098_at / Fold change /veh 11764098_at / RFU SAMD14 (11745864_x_at) / Fold change /veh SAMD14 (11745864_x_at) / RFU NPB (11741838_a_at) / Fold change /veh NPB (11741838_a_at) / RFU TMPRSS6 (11731388_a_at) / Fold change /veh TMPRSS6 (11731388_a_at) / RFU KRTAP10-2 (11738614_at) / Fold change /veh KRTAP10-2 (11738614_at) / RFU ARHGAP8 /// PRR5-ARHGAP8 (11727945_x_at) / Fold change /veh ARHGAP8 /// PRR5-ARHGAP8 (11727945_x_at) / RFU KRTAP5-7 /// NADSYN1 (11734609_at) / Fold change /veh KRTAP5-7 /// NADSYN1 (11734609_at) / RFU RASL12 (11751679_a_at) / Fold change /veh RASL12 (11751679_a_at) / RFU CDKN2B (11736163_a_at) / Fold change /veh CDKN2B (11736163_a_at) / RFU PRF1 (11729649_at) / Fold change /veh PRF1 (11729649_at) / RFU, ZNF638 /// ZNF638-IT1 / Fold change vs veh, ZNF638 /// ZNF638-IT1 / RFU, PANK3 / Fold change vs veh, PANK3 / RFU, SH3YL1 / Fold change vs veh, SH3YL1 / RFU, ZEB2 / Fold change vs veh, ZEB2 / RFU, NRIP1 / Fold change vs veh, NRIP1 / RFU, PTTG1IP / Fold change vs veh, PTTG1IP / RFU, CAPN2 / Fold change vs veh, CAPN2 / RFU, MED14 / Fold change vs veh, MED14 / RFU, SNORA58 / Fold change vs veh, SNORA58 / RFU, C1orf63 / Fold change vs veh, C1orf63 / RFU, LRRFIP1 / Fold change vs veh, LRRFIP1 / RFU, NDUFAF7 / Fold change vs veh, NDUFAF7 / RFU, SLC12A2 / Fold change vs veh, SLC12A2 / RFU, IBTK / Fold change vs veh, IBTK / RFU, ESF1 / Fold change vs veh, ESF1 / Fold change vs veh, TMEM50B / RFU, TAOK1 / Fold change vs veh, TAOK1 / RFU, ACBD3 / Fold change vs veh, ACBD3 / RFU, TMA16 / Fold change vs veh, TMA16 / RFU, RWDD3 / Fold change vs veh, RWDD3 / RFU, BCAT1 / Fold change vs veh, BCAT1 / RFU, EDEM3 / Fold change vs veh, EDEM3 / RFU, TMEM33 / Fold change vs veh, TMEM33 / RFU, WDR75 / Fold change vs veh, WDR75 / RFU, AHCTF1 / Fold change vs veh, AHCTF1 / RFU, TFRC / Fold change vs veh, TFRC / RFU, ZDHHC17 / Fold change vs veh, ZDHHC17 / RFU, NOM1 / Fold change vs veh, NOM1 / RFU, ARL8B / Fold change vs veh, ARL8B / RFU, ZBTB11 / Fold change vs veh, ZBTB11 / RFU, TAMM41 / Fold change vs veh, TAMM41 / RFU, KIAA1704 /// LOC100996395 / Fold change vs veh, KIAA1704 /// LOC100996395 / RFU, ING1 / Fold change vs veh, ING1 / RFU, TRMT61B / Fold change vs veh, TRMT61B / RFU, FUBP3 / Fold change vs veh, FUBP3 / RFU, TP53 / Fold change vs veh, TP53 / RFU, TNKS2 / Fold change vs veh, TNKS2 / RFU, ZFP14 / Fold change vs veh, ZFP14 / RFU, ACTR2 / Fold change vs veh, ACTR2 / RFU, PPP3R1 / Fold change vs veh, PPP3R1 / RFU, PIK3R1 / Fold change vs veh, PIK3R1 / RFU, HNRNPA1 / Fold change vs veh, HNRNPA1 / RFU, RNF170 / Fold change vs veh, RNF170 / RFU, ZNF28 / Fold change vs veh, ZNF28 / RFU, RNGTT / Fold change vs veh, RNGTT / RFU, OGT / Fold change vs veh, OGT / RFU, BRD1 / Fold change vs veh, BRD1 / RFU, MARS / Fold change vs veh, MARS / RFU, ZNF655 / Fold change vs veh, ZNF655 / RFU, FAHD1 / Fold change vs veh, FAHD1 / RFU, BDP1 / Fold change vs veh, BDP1 / RFU, LRRCC1 / Fold change vs veh, LRRCC1 / RFU, ARID1A / Fold change vs veh, ARID1A / RFU, ZNF146 / Fold change vs veh, ZNF146 / RFU, ZNF330 / Fold change vs veh, ZNF330 / RFU, GPN3 / Fold change vs veh, GPN3 / RFU, C9orf123 / Fold change vs veh, C9orf123 / RFU, N4BP2L2 / Fold change vs veh, N4BP2L2 / RFU, ARFIP1 / Fold change vs veh, ARFIP1 / RFU, FAM179B / Fold change vs veh, FAM179B / RFU, BCL10 / Fold change vs veh, BCL10 / RFU, UHRF1BP1L / Fold change vs veh, UHRF1BP1L / RFU, BET1 / Fold change vs veh, BET1 / RFU, CNOT2 / Fold change vs veh, CNOT2 / RFU, ZNF268 / Fold change vs veh, ZNF268 / Fold change vs veh, ZNF507 / RFU, DGCR2 / Fold change vs veh, DGCR2 / RFU, WDSUB1 / Fold change vs veh, WDSUB1 / Fold change vs veh, HSP90B1 /// MIR3652 / RFU, ADSS / Fold change vs veh, ADSS / RFU, GK / Fold change vs veh, GK / RFU, ZNF148 / Fold change vs veh, ZNF148 / RFU, TAF9 / Fold change vs veh, TAF9 / RFU, SLC1A5 / Fold change vs veh, SLC1A5 / RFU, SLMO2 / Fold change vs veh, SLMO2 / RFU, ABCC4 / Fold change vs veh, ABCC4 / RFU, LOC101060439 /// RAP1B / Fold change vs veh, LOC101060439 /// RAP1B / RFU, RFX7 / Fold change vs veh, RFX7 / RFU, GTPBP10 / Fold change vs veh, GTPBP10 / RFU, CNEP1R1 / Fold change vs veh, CNEP1R1 / RFU, BIVM-ERCC5 /// ERCC5 / Fold change vs veh, BIVM-ERCC5 /// ERCC5 / RFU, ILF3 / Fold change vs veh, ILF3 / RFU 11762660_at / Fold change /veh 11762660_at / RFU VCAN (11757783_s_at) / Fold change /veh VCAN (11757783_s_at) / RFU DDX43 (11728927_at) / Fold change /veh DDX43 (11728927_at) / RFU KRT8 (11758188_x_at) / Fold change /veh KRT8 (11758188_x_at) / RFU NKD1 (11759106_at) / Fold change /veh NKD1 (11759106_at) / RFU SRD5A1 (11742802_a_at) / Fold change /veh SRD5A1 (11742802_a_at) / RFU TPSAB1 /// TPSB2 (11721975_s_at) / Fold change /veh TPSAB1 /// TPSB2 (11721975_s_at) / RFU GSTM3 (11746129_a_at) / Fold change /veh GSTM3 (11746129_a_at) / RFU IL23R (11737362_x_at) / Fold change /veh IL23R (11737362_x_at) / RFU TMEM51 (11727254_a_at) / Fold change /veh TMEM51 (11727254_a_at) / RFU PIWIL2 (11732686_x_at) / Fold change /veh PIWIL2 (11732686_x_at) / RFU ORM1 (11744905_x_at) / Fold change /veh ORM1 (11744905_x_at) / RFU CCDC152 (11743942_at) / Fold change /veh CCDC152 (11743942_at) / RFU ECM1 (11717891_a_at) / Fold change /veh ECM1 (11717891_a_at) / RFU IL23R (11748794_a_at) / Fold change /veh IL23R (11748794_a_at) / RFU TNFAIP8L3 (11732012_x_at) / Fold change /veh TNFAIP8L3 (11732012_x_at) / RFU MBOAT4 (11741988_at) / Fold change /veh MBOAT4 (11741988_at) / RFU 11764193_at / Fold change /veh 11764193_at / RFU TMEM53 (11763286_at) / Fold change /veh TMEM53 (11763286_at) / RFU MAGEB2 (11727129_at) / Fold change /veh MAGEB2 (11727129_at) / RFU TMEM200A (11744735_a_at) / Fold change /veh TMEM200A (11744735_a_at) / RFU CCDC152 (11751479_a_at) / Fold change /veh CCDC152 (11751479_a_at) / RFU FAM211A (11726209_a_at) / Fold change /veh FAM211A (11726209_a_at) / RFU RGS16 (11746705_a_at) / Fold change /veh RGS16 (11746705_a_at) / RFU VCAN (11755009_s_at) / Fold change /veh VCAN (11755009_s_at) / RFU RHOB (11743442_s_at) / Fold change /veh RHOB (11743442_s_at) / RFU RGS16 (11720943_a_at) / Fold change /veh RGS16 (11720943_a_at) / RFU RGS16 (11720944_at) / Fold change /veh RGS16 (11720944_at) / RFU, VPS4B / Fold change vs veh, VPS4B / RFU, CREB1 / Fold change vs veh, CREB1 / RFU, DNAJC13 / Fold change vs veh, DNAJC13 / RFU, GNAQ / Fold change vs veh, GNAQ / RFU, CDK5R1 / Fold change vs veh, CDK5R1 / RFU, ZRANB3 / Fold change vs veh, ZRANB3 / RFU, CUL4A / Fold change vs veh, CUL4A / RFU, CCNY / Fold change vs veh, CCNY / RFU, UFL1 / Fold change vs veh, UFL1 / RFU, COG3 / Fold change vs veh, COG3 / RFU, DIAPH2 / Fold change vs veh, DIAPH2 / RFU, SKA2 / Fold change vs veh, SKA2 / RFU, AFF3 / Fold change vs veh, AFF3 / RFU, LMF1 / Fold change vs veh, LMF1 / RFU, IPO11 / Fold change vs veh, IPO11 / RFU, DFFB / Fold change vs veh, DFFB / RFU, FOXP1 / Fold change vs veh, FOXP1 / RFU, CARD8 / Fold change vs veh, CARD8 / RFU, STRN3 / Fold change vs veh, STRN3 / RFU, ADK / Fold change vs veh, ADK / RFU, RASSF2 / Fold change vs veh, RASSF2 / RFU, WIPF1 / Fold change vs veh, WIPF1 / RFU, LARP1B / Fold change vs veh, LARP1B / RFU, RASA1 / Fold change vs veh, RASA1 / RFU, RB1 / Fold change vs veh, RB1 / RFU, PPFIA1 / Fold change vs veh, PPFIA1 / RFU, MAT2A / Fold change vs veh, MAT2A / RFU, CCT5 / Fold change vs veh, CCT5 / RFU, WDR92 / Fold change vs veh, WDR92 / RFU, CUX1 / Fold change vs veh, CUX1 / RFU, TTC7A / Fold change vs veh, TTC7A / RFU, TMEM135 / Fold change vs veh, TMEM135 / RFU, DEPTOR / Fold change vs veh, DEPTOR / RFU, CPM / Fold change vs veh, CPM / RFU, DNAJB6 / Fold change vs veh, DNAJB6 / RFU, CACNA2D3 / Fold change vs veh, CACNA2D3 / RFU, DTX4 / Fold change vs veh, DTX4 / RFU, TFCP2 / Fold change vs veh, TFCP2 / RFU, GMCL1 /// GMCL1P1 / Fold change vs veh, GMCL1 /// GMCL1P1 / RFU, AEBP2 / Fold change vs veh, AEBP2 / RFU, SNHG1 /// SNORD22 /// SNORD25 /// SNORD26 /// SNORD27 /// SNORD28 /// SNORD29 /// SNORD31 / Fold change vs veh, SNHG1 /// SNORD22 /// SNORD25 /// SNORD26 /// SNORD27 /// SNORD28 /// SNORD29 /// SNORD31 / Fold change (Aza/veh), C12orf56 (ProbeSet 11735607_a_at) / Fold change (ACY-1035/veh), C12orf56 (ProbeSet 11735607_a_at) / Fold change (Aza/veh), FGFR1OP (ProbeSet 11751329_s_at) / Fold change (ACY-1035/veh), FGFR1OP (ProbeSet 11751329_s_at) / Fold change (Aza/veh), VPS36 (ProbeSet 11739960_a_at) / Fold change (ACY-1035/veh), VPS36 (ProbeSet 11739960_a_at) / RFU SYPL1 (11715823_x_at) / Fold change /veh SYPL1 (11715823_x_at) / RFU IGFBP7 (11715501_s_at) / Fold change /veh IGFBP7 (11715501_s_at) / RFU REEP3 (11722064_at) / Fold change /veh REEP3 (11722064_at) / RFU IGLL1 (11728026_x_at) / Fold change /veh IGLL1 (11728026_x_at): dose or concentration left out as unconfirmed
# Conditions: MV-4-11 cells, 48 hours
smiles,measurement,value
Nc1ncn([C@@H]2O[C@H](CO)[C@@H](O)[C@H]2O)c(=O)n1 [azacitidine],Fold change /veh MAPK11 (11762145_a_at),1.03
